Laboratory results: patent US8530513B1, “Pharmaceutical uses of diterpene excavatolide B from a coral or an analogue thereof” (National Sun Yat-Sen University, priority 2012, dated 2013)

Experiments:
[1] = test system: Erk1/2; assay: TPA-induced Erk phosphorylation in mouse skin, western blot; type: in vivo; settings: topical for 2 h after TPA
Procedure: Shaven abdominal skins of female C57BL/6JNarl mice were not treated or topically treated with vehicle (acetone, 200 μl/site) or TPA (10 nmol in 200 μl acetone/site) at indicated time points or treated first with TPA for 10 min, then with the indicated concentrations of BrD1 at the indicated time points. Abdominal skin samples were collected, homogenated and lysed to prepare total proteins. Protein samples were subsequently resolved by SDS-PAGE using a gradient gel. The resolved proteins were transferred to a PVDF Immobilon-P membrane (Millipore, Bedford, Calif.), and the membrane was blocked with 5% non-fat dry milk in PBST buffer (phosphate-buffered saline (PBS) containing 0.1% Tween 20) for 60 minutes at room temperature. The membranes were incubated overnight at 4° C. with commercially available antibodies (1:1000 dilutions). Loading of equal amounts of protein was assessed using mouse β-actin. The blots were rinsed three times with PBST buffer for 5 minutes. Washed blots were incubated with HRP-conjugated secondary antibody (1:100,000 dilution), then washed again three times with PBST buffer. […] Quantification of bands was performed using Image J software.
We therefore evaluated whether BrD1 could interfere with TPA-induced activation of Akt and Erk in inflamed skin. […] We thus determined the phosphorylation level of Akt, Erk, NF-κB and IκBα in skins subjected to different treatments. […]

[2] = test system: IL-6; assay: LPS-induced IL-6 expression in mouse bone marrow-derived dendritic cells, ELISA; type: cell-based; settings: for IL-6 expression in LPS-stimulated dendritic cells: LPS 100 ng/ml plus BrD1 at different concentrations, 24 h
Description: For mouse bone marrow-derived DCs (BMDCs), five to six-week-old female C57BL/6JNarl mice were purchased from the National Laboratory Animal Center, Taiwan and kept under SPF conditions. BMDCs were generated from bone marrow cells of C57BL/6 mice as described previously (Yin S Y, Wang W H, Wang B X, Aravindaram K, Hwang P I, Wu H M, Yang N S. BMC genomics 2010, 11:612). In brief, bone marrow was isolated from femurs and tibiae which were then flushed with RPMI-1640 medium using a syringe with a 0.45-mm needle on Day 0. Red blood cells in suspension were lysed for […] with ACK lysing buffer (150 mM NH4Cl, 1.0 mM KHCO3, 0.1 mM EDTA). Bone marrow cells were suspended at a density of 1×10^7 cells/30 ml in RPMI-1640 containing 10% FBS, 2 mM L-glutamine, 1% of nonessential amino acids, 100 U/mL penicillin and 100 μg/mL streptomycin supplemented with 20 ng/mL of mGM-CSF in 15-cm dishes at 37° C. with 5% CO2. On day 2, two-thirds of the medium was removed and 30 mL fresh medium with mGM-CSF was added to the cells. On day 5, culture plates were gently swirled and the floating and loosely adherent cells were discarded. Aliquots of 75% culture media were replenished with 20 ng/mL mGM-CSF and 20 ng/mL mIL-4. On day 7, mouse BMDCs (95% pure CD11b and MHC II) were harvested and incubated in RPMI 1640 medium containing 1 mM sodium pyruvate, 0.1 mM nonessential amino acids, 100 U/ml penicillin, 100 μg/ml streptomycin, and supplemented with 10% fetal bovine serum (Invitrogen, Carlsbad, Calif.) for 24 h at 37° C. with or without test chemicals in the presence or absence of LPS (100 ng/ml).
BMDCs were treated with or without test chemicals in the presence or absence of LPS (100 ng/ml) for 24 h at 37° C. Aliquots of supernatants from DC cultures were assayed for IL-6 and TNF-α using commercial ELISA kits (R&D Systems, Minneapolis, Minn.) following the manufacturer's recommendations.
Several studies have reported that the secretion of specific cytokines, including IL-1β, TNF-α and IL-6 by keratinocytes and various immune cells is involved in cutaneous inflammation (Nestle F O, Di Meglio P, Qin J Z, Nickoloff B J. Nature reviews Immunology 2009, 9:679-691; De Vry C G, Valdez M, Lazarov M, Muhr E, Buelow R, Fong T, Iyer S. J Invest Dermatol 2005, 125:473-481; Cumberbatch M, Dearman R J, Kimber I. Immunology 1996, 87:513-518). In order to investigate the anti-inflammatory effect of BrD1 on cytokine expression, mouse bone marrow-derived dendritic cells were used to evaluate the inhibitory effect of BrD1 on LPS-induced expressions of TNF-α and IL-6. In our time-course study for expression of TNF-α and IL-6, after LPS stimulation, a high expression of TNF-α and IL-6 was maintained at 24 h (FIG. 6A). We therefore chose 24 h as the time point at which to assess the expression of TNF-α and IL-6.

What does the source list for `CCCC(=O)O[C@H]1C/C(C)=C\[C@@H]2OC(=O)[C@]3(C)O[C@]23[C@@H](OC(C)=O)[C@H]2[C@@H](C)[C@@H](O)C[C@H](OC(C)=O)[C@]2(C)[C@H]1OC(C)=O` [BrD1, excavatolide B]?
TPA-induced Erk phosphorylation [1]: inhibit TPA-induced Erk phosphorylation only slightly; inhibition of LPS-induced IL-6 expression (structure-activity relationship) ([2]; DCs co-treated with LPS and BrDs at 20 μM): significantly inhibited the expression of cytokine IL-6; IL-6 expression in LPS-stimulated dendritic cells [2]: strongly inhibited IL-6 expression; IL-6 expression in LPS-stimulated dendritic cells ([2]; listed as Excavatolide B): strongly inhibits IL-6 expression
